pIC50: −log10 of the molar value.

T1 sequence (Q00987 1-188): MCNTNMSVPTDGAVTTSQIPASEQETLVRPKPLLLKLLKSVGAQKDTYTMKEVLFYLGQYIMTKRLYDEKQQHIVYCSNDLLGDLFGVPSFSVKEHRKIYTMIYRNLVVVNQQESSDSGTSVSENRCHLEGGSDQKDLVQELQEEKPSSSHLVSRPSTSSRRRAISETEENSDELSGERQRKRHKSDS

This test concerns the target T1, human MDM2 (GST-hMDM2 1-188), interaction with biotinylated-p53 (1-83) (Homo sapiens, UniProt Q00987).
T1 construct: Amino acid residues 1-188 of human MDM2 were expressed; made in house; host or cells: Escherichia coli
The test can be described thus: improved HTRF assay (HTRF2 assay), inhibition of HDM2-p53 interaction. The class given is binding. To be noted: 0.2 nM GST-hMDM2, 0.5 nM biotinylated-p53, 100 mM KF. The method, boiled down: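 GST-hMDM2 preincubated 20 min at RT with serially diluted compound, then biotinylated p53 (1-83, E. coli) added for 60 min. Detection with SA-XLent, anti-GST cryptate and KF, equilibrated >4 h; final DMSO 2%. TR-FRET read; % inhibition calculated relative to nutlin-3.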
In general terms: TR-FRET usually uses a lanthanide donor and a delayed reading to cut background.
Consider `CC(C)[C@@H](CN(c1ccccc1F)S(=O)(=O)C(C)C)N1C(=O)[C@@H](CC(=O)O)O[C@H](c2cccc(Cl)c2)[C@H]1c1ccc(Cl)cc1` (single isomer, unassigned) [Example 199, 2-((2R,5R,6R)-6-(3-chlorophenyl)-5-(4-chlorophenyl)-4-((S)-1-(N-(2-fluorophenyl)propan-2-ylsulfonamido)-3-methylbutan-2-yl)-3-oxomorpholin-2-yl)acetic acid or 2-((2S,5R,6R)-6-(3-chlorophenyl)-5-(4-chlorophenyl)-4-((S)-1-(N-(2-fluorophenyl)propan-2-ylsulfonamido)-3-methylbutan-2-yl)-3-oxomorpholin-2-yl)acetic acid], for which the pIC50 – broadly, the IC50 on a negative log10 scale, so that one unit is a factor of ten – is 9.00. The value for `CC(C)[C@@H](CN(c1ccccc1F)S(=O)(=O)C(C)(C)C)N1C(=O)[C@@H](CC(=O)O)O[C@H](c2cccc(Cl)c2)[C@H]1c1ccc(Cl)cc1` (single isomer, unassigned) [Example 200, 2-((2R,5R,6R)-6-(3-chlorophenyl)-5-(4-chlorophenyl)-4-((S)-1-(N-(2-fluorophenyl)-2-methylpropan-2-ylsulfonamido)-3-methylbutan-2-yl)-3-oxomorpholin-2-yl)acetic acid or 2-((2S,5R,6R)-6-(3-chlorophenyl)-5-(4-chlorophenyl)-4-((S)-1-(N-(2-fluorophenyl)-2-methylpropan-2-ylsulfonamido)-3-methylbutan-2-yl)-3-oxomorpholin-2-yl)acetic acid] was 9.00; that for `CC(C)[C@@H](CN(c1ccccc1F)S(=O)(=O)C(C)(C)C)N1C(=O)[C@@H](CC(=O)O)O[C@H](c2cccc(Cl)c2)[C@H]1c1ccc(Cl)cc1` (single isomer, unassigned) [Example 201, 2-((2R,5R,6R)-6-(3-chlorophenyl)-5-(4-chlorophenyl)-4-((S)-1-(N-(2-fluorophenyl)-2-methylpropan-2-ylsulfonamido)-3-methylbutan-2-yl)-3-oxomorpholin-2-yl)acetic acid or 2-((2S,5R,6R)-6-(3-chlorophenyl)-5-(4-chlorophenyl)-4-((S)-1-(N-(2-fluorophenyl)-2-methylpropan-2-ylsulfonamido)-3-methylbutan-2-yl)-3-oxomorpholin-2-yl)acetic acid] was 8.70; that for `CC[C@@H](CS(=O)(=O)c1ccccn1)N1C(=O)[C@@H](CC(=O)O)O[C@H](c2cccc(Cl)c2)[C@H]1c1ccc(Cl)cc1` (single isomer, unassigned) [Example 202, 2-((2R,5R,6R)-6-(3-chlorophenyl)-5-(4-chlorophenyl)-3-oxo-4-((S)-1-(pyridin-2-ylsulfonyl)butan-2-yl)morpholin-2-yl)acetic acid or 2-((2S,5R,6R)-6-(3-chlorophenyl)-5-(4-chlorophenyl)-3-oxo-4-((S)-1-(pyridin-2-ylsulfonyl)butan-2-yl)morpholin-2-yl)acetic acid] was 8.40. As to `CC[C@@H](CS(=O)(=O)c1ccccn1)N1C(=O)[C@@H](CC(=O)O)O[C@H](c2cccc(Cl)c2)[C@H]1c1ccc(Cl)cc1` (single isomer, unassigned) [Example 203, 2-((2R,5R,6R)-6-(3-chlorophenyl)-5-(4-chlorophenyl)-3-oxo-4-((S)-1-(pyridin-2-ylsulfonyl)butan-2-yl)morpholin-2-yl)acetic acid or 2-((2S,5R,6R)-6-(3-chlorophenyl)-5-(4-chlorophenyl)-3-oxo-4-((S)-1-(pyridin-2-ylsulfonyl)butan-2-yl)morpholin-2-yl)acetic acid], the pIC50 is 7.70. The value for `CC[C@@H](CS(=O)(=O)N1CCC[C@@H]1C)N1C(=O)[C@@H](CC(=O)O)O[C@H](c2cccc(Cl)c2)[C@H]1c1ccc(Cl)cc1` (single isomer, unassigned) [Example 208, 2-((2R,5R,6R)-6-(3-chlorophenyl)-5-(4-chlorophenyl)-4-((S)-1-(((S)-2-methylpyrrolidin-1-yl)sulfonyl)butan-2-yl)-3-oxomorpholin-2-yl)acetic acid or 2-((2S,5R,6R)-6-(3-chlorophenyl)-5-(4-chlorophenyl)-4-((S)-1-(((S)-2-methylpyrrolidin-1-yl)sulfonyl)butan-2-yl)-3-oxomorpholin-2-yl)acetic acid] was 8.70; that for `CC[C@@H](CS(=O)(=O)N1CCC[C@@H]1C)N1C(=O)[C@@H](CC(=O)O)O[C@H](c2cccc(Cl)c2)[C@H]1c1ccc(Cl)cc1` (single isomer, unassigned) [Example 209, 2-((2R,5R,6R)-6-(3-chlorophenyl)-5-(4-chlorophenyl)-4-((S)-1-(((S)-2-methylpyrrolidin-1-yl)sulfonyl)butan-2-yl)-3-oxomorpholin-2-yl)acetic acid or 2-((2S,5R,6R)-6-(3-chlorophenyl)-5-(4-chlorophenyl)-4-((S)-1-(((S)-2-methylpyrrolidin-1-yl)sulfonyl)butan-2-yl)-3-oxomorpholin-2-yl)acetic acid] was 8.15. `CC[C@@H](CS(=O)(=O)N1CCC[C@H]1C)N1C(=O)[C@@H](CC(=O)O)O[C@H](c2cccc(Cl)c2)[C@H]1c1ccc(Cl)cc1` (single isomer, unassigned) [Example 210, 2-((2R,5R,6R)-6-(3-chlorophenyl)-5-(4-chlorophenyl)-4-((S)-1-(((R)-2-methylpyrrolidin-1-yl)sulfonyl)butan-2-yl)-3-oxomorpholin-2-yl)acetic acid or 2-((2S,5R,6R)-6-(3-chlorophenyl)-5-(4-chlorophenyl)-4-((S)-1-(((R)-2-methylpyrrolidin-1-yl)sulfonyl)butan-2-yl)-3-oxomorpholin-2-yl)acetic acid] had a pIC50 of 9.00. The value for `CC[C@@H](CS(=O)(=O)N1CCC[C@H]1C)N1C(=O)[C@@H](CC(=O)O)O[C@H](c2cccc(Cl)c2)[C@H]1c1ccc(Cl)cc1` (single isomer, unassigned) [Example 211, 2-((2R,5R,6R)-6-(3-chlorophenyl)-5-(4-chlorophenyl)-4-((S)-1-(((R)-2-methylpyrrolidin-1-yl)sulfonyl)butan-2-yl)-3-oxomorpholin-2-yl)acetic acid or 2-((2S,5R,6R)-6-(3-chlorophenyl)-5-(4-chlorophenyl)-4-((S)-1-(((R)-2-methylpyrrolidin-1-yl)sulfonyl)butan-2-yl)-3-oxomorpholin-2-yl)acetic acid] was 8.40; that for `CC[C@@H](CS(=O)(=O)C1CC1)N1C(=O)[C@@H](CC(=O)O)O[C@H](c2cccc(Cl)c2)[C@H]1c1ccc(Cl)cc1` (single isomer, unassigned) [Example 212, 2-((2R,5R,6R)-6-(3-chlorophenyl)-5-(4-chlorophenyl)-4-((S)-1-(cyclopropylsulfonyl)butan-2-yl)-3-oxomorpholin-2-yl)acetic acid or 2-((2S,5R,6R)-6-(3-chlorophenyl)-5-(4-chlorophenyl)-4-((S)-1-(cyclopropylsulfonyl)butan-2-yl)-3-oxomorpholin-2-yl)acetic acid] was 8.70. With `CC[C@@H](CS(=O)(=O)C1CC1)N1C(=O)[C@@H](CC(=O)O)O[C@H](c2cccc(Cl)c2)[C@H]1c1ccc(Cl)cc1` (single isomer, unassigned) [Example 213, 2-((2R,5R,6R)-6-(3-chlorophenyl)-5-(4-chlorophenyl)-4-((S)-1-(cyclopropylsulfonyl)butan-2-yl)-3-oxomorpholin-2-yl)acetic acid or 2-((2S,5R,6R)-6-(3-chlorophenyl)-5-(4-chlorophenyl)-4-((S)-1-(cyclopropylsulfonyl)butan-2-yl)-3-oxomorpholin-2-yl)acetic acid] the figure was 8.30; with `CC[C@@H](CN(c1ccccc1F)S(=O)(=O)C1CC1)N1C(=O)[C@@H](CC(=O)O)O[C@H](c2cccc(Cl)c2)[C@H]1c1ccc(Cl)s1` (single isomer, unassigned) [Example 216, 2-((2R,5S,6R)-6-(3-chlorophenyl)-5-(5-chlorothiophen-2-yl)-4-((S)-1-(N-(2-fluorophenyl)cyclopropanesulfonamido)butan-2-yl)-3-oxomorpholin-2-yl)acetic acid or 2-((2S,5S,6R)-6-(3-chlorophenyl)-5-(5-chlorothiophen-2-yl)-4-((S)-1-(N-(2-fluorophenyl)cyclopropanesulfonamido)butan-2-yl)-3-oxomorpholin-2-yl)acetic acid], greater than 9.00.

For `CC[C@@H](CN(c1ccccc1F)S(=O)(=O)C1CC1)N1C(=O)[C@@H](CC(=O)O)O[C@H](c2cccc(Cl)c2)[C@H]1c1ccc(Cl)s1` (single isomer, unassigned) [Example 217, 2-((2R,5S,6R)-6-(3-chlorophenyl)-5-(5-chlorothiophen-2-yl)-4-((S)-1-(N-(2-fluorophenyl)cyclopropanesulfonamido)butan-2-yl)-3-oxomorpholin-2-yl)acetic acid or 2-((2S,5S,6R)-6-(3-chlorophenyl)-5-(5-chlorothiophen-2-yl)-4-((S)-1-(N-(2-fluorophenyl)cyclopropanesulfonamido)butan-2-yl)-3-oxomorpholin-2-yl)acetic acid], the pIC50 is greater than 9.00. The value for `CC[C@@H](CS(=O)(=O)C(C)(C)C)N1C(=O)[C@@H](CC(=O)O)O[C@H](c2cccc(Cl)c2)[C@H]1c1ccc(Cl)s1` (single isomer, unassigned) [Example 218, 2-((2R,5S,6R)-4-((S)-1-(tert-butylsulfonyl)butan-2-yl)-6-(3-chlorophenyl)-5-(5-chlorothiophen-2-yl)-3-oxomorpholin-2-yl)acetic acid or 2-((2S,5S,6R)-4-((S)-1-(tert-butylsulfonyl)butan-2-yl)-6-(3-chlorophenyl)-5-(5-chlorothiophen-2-yl)-3-oxomorpholin-2-yl)acetic acid] was 9.00.

The record behind these values is patent US9376425B2, “Heterocyclic compounds as MDM2 inhibitors for the treatment of cancer” (AMGEN INC., priority 2011, dated 2016).
